Measurements as given in patent publication US20090202499A1, “Human Telomerase Reverse Transcriptase Peptides” (priority 2006, published 2009).
“Also recorded” adds a separate entry of the source.

Key:
[1] = test system: T2-B7 pulsed with peptide; test: small scale in vitro immunization of normal donor PBMC (96 well plate), micro 51Cr-release CTL assay; type: cell-based, human; conditions: for CTL response (specific lysis) Donor 1 / CTL response (specific lysis) Donor 2 / CTL response (specific lysis) Donor 3 / CTL response (specific lysis) Donor 4 / CTL response (specific lysis) Donor 5 / CTL response (specific lysis) Donor 6 / CTL response (specific lysis) Donor 7 / CTL response (specific lysis) Donor 8: HLA-B7+ normal donor PBMC, day 10-11, approximate E:T 10:1; for CTL response of normal donor PBMC in micro-CTL assay (in words): eight HLA-B7+ normal donors; for Low R/Total: low responders among eight donors; for High R/Total: responders considered at >50% specific CTL lysis, eight donors
Description: In vitro immunization procedures. In experiments shown in Table III and FIG. 3, immunizations were performed in 96 well plates. Briefly, 2×10^5 irradiated (6000 rads) human PBMC were plated in 96 (flat) well-plate in 100 micro-liters of complete human medium (RPMI 1640 medium containing 10% heat inactivated human AB serum, 2 mM glutamine, 50 micro-grams/ml streptomycin and 50 micro-grams/ml penicillin) with 100 micro-grams/ml of peptide. 12 wells per peptide were plated per patient. Then 2×10^5 PBMC in 100 micro-liters of complete human medium were added into each well. Four days later 100 micro-liters of medium were replaced with 100 micro-liters of fresh complete human medium containing 80 IU/ml of IL-2. At day 6-7, 100 IU/ml of IL-2 were added and wells were split into two. On day 10-11 micro-cytotoxicity assay was performed. In experiments shown in FIGS. 4 and 5 human PBMC were stimulated in vitro in 24 well plate with autologous, irradiated, peptide-pulsed adherent cells in the presence of IL-2 and IL-7 as previously described (12). On day 4 to 5 after restimulation, effector CTL were tested in a standard ^51Cr-release assay.
(§1) CTL assays. Both murine and human CTL were detected by the ^51Cr release assay performed as previously described (14). Briefly, HLA-B7^+ antigen presenting cells (RMA-B7 or T2-B7 cells) were labeled for 1 hr with 100 micro-Ci of Na2^51CrO4 (Perkin Elmer). Washed cells (5×10^3 per well) were mixed in 96-well plates in 100 micro-liters/well with each peptide (at 10 micro-grams/ml or lower concentration) and 100 micro-liters of the CTL effector cells (at various E:T ratio) in RPMI medium. The plates were incubated for 4-5 hrs at 37° C. (5% CO2). The supernatants were harvested and counted on a Wallac 1470 Wizard Gamma counter. The percent lysis was calculated as 100 (cpmexp−cpmspont)/(cpmmax−cpmspont).
To further assess the immunogenicity of the selected peptide candidates as well as their ability to expand precursor CD8 T cell in human PBMC, the following experiment was performed. PBMC from eight HLA-B7^+ normal donors were screened in a small scale in vitro immunization assay (96 well plate assay) to determine the level of responses against each individual peptide. As indicated the response to these peptides varied among the eight donors. […] Thus, the results of this in vitro assay narrowed the spectrum of immunogenic peptides beyond those identified in vivo in HLA-B7 Tg mice. A typical result of this type of analysis is shown in FIG. 3, which depicts the induction of CTL and their specificity in each of the twelve wells. As shown, there is considerable variability in the number of positive wells per peptide as well as in the percentage lysis which itself varied from peptide to peptide. This variation in the response to each peptide may be related to either an intrinsic characteristic of the peptide (e.g., its avidity) or a variation in the frequency of CD8 T cell precursors for that peptide among donors particularly in view of the format of the assay used.
PBMC from HLA-B7^+ normal blood donors were pulsed with the candidate peptide in 96 well plate assay (described in Material and Methods), and tested for lysis of T2-B7 pulsed with peptide on day 10-11. A micro ^51Cr-release assay was performed as described in Material and Methods. Responders were considered at >50% specific CTL lysis. CTL assays were performed at an approximate E:T ratio of 10:1. ND not done

[2] = test system: RMA-B7 cells pulsed with the homologous hTRT peptide; test: peptide immunization of HLA-B7 Tg mice, 51Cr-release assay; type: in vivo; conditions: 100 micrograms peptide + HBV helper peptide in IFA, s.c.
Description: FIG. 1. […] HLA-B7 Tg mice were vaccinated with 100 micrograms of individual hTRT peptide together with 120 micrograms of HBV helper peptide in IFA. Ten days after immunization, spleen lymphocytes were restimulated in vitro with peptide and fresh, irradiated syngeneic APC. Restimulations were performed on a weekly basis. A standard 4 hour ^51Cr-release assay was performed on day 5 after in vitro restimulation, using RMA-B7 cells pulsed with the homologous hTRT peptide as targets and an E:T ratio of 25:1. Results are expressed as the mean specific lysis plus or minus standard deviation of responder mice only, whose number is indicated in each panel. Tests were run in duplicate.
In vivo immunization procedures. Peptide immunization. HLA B7 transgenic mice (28) were injected s.c. at the base of the tail with 100 micro-grams of hTRT peptides along with 120 micro-grams of I-A^b MHC Class II helper peptide 128-140 of the hepatitis B virus core protein in incomplete Freunds' adjuvant as described previously (12). Long-term CTL lines were maintained in culture by weekly restimulation with irradiated, peptide-pulsed syngeneic spleen cells in RPMI-1640 medium containing 10% heat inactivated fetal bovine serum, 2 mM glutamine, 5×10^−5 M 2-Mercaptoethanol, 50 micro-grams/ml streptomycin, and 50 micro-grams/ml penicillin (complete medium) and supplemented with 40 IU/ml of recombinant human IL-2.
as §1
In order to assign immunogenicity to each of the peptides and correlate this property with the binding characteristics and the scores of the predictive algorithms, we immunized HLA-B7 Tg mice (28). Ten to eleven days after immunization mice were sacrificed, the spleen harvested and splenocytes put in culture with LPS/Dextran activated APC, and tested in a 4 hour ^51Cr-release assay. As shown, only five out of seven peptides yielded a meaningful, specific CTL response even after a third cycle of in vitro restimulation (FIG. 1). All immunogenic peptides induced a response from the first in vitro restimulation and this response increased upon subsequent rounds of antigen restimulation. As noted the lysis of peptide-pulsed RMA-B7 target cells increased at each round of in vitro restimulation. No lysis occurred on RMA-B7 cells not pulsed with peptide. Thus, the in vivo results together with the actual measure of the avidity of HLA-B7 binding avidity distinguished two groups of 9mer hTRT peptides.

Row | SMILES | CTL response (specific lysis) Donor 1 [1] | CTL response (specific lysis) Donor 2 [1] | CTL response (specific lysis) Donor 3 [1] | CTL response (specific lysis) Donor 4 [1] | CTL response (specific lysis) Donor 5 [1] | CTL response (specific lysis) Donor 6 [1] | CTL response (specific lysis) Donor 7 [1] | CTL response (specific lysis) Donor 8 [1] | CTL response of normal donor PBMC in micro-CTL assay (in words) [1] | Low R/Total [1] | High R/Total [1] | immunogenicity in vivo, CTL response after peptide immunization (in words) [2]
1 | CC(C)C[C@H](NC(=O)[C@H](CO)NC(=O)[C@@H](NC(=O)[C@H](C)NC(=O)[C@H](CCC(=O)O)NC(=O)[C@H](CCC(=O)O)NC(=O)[C@H](C)NC(=O)[C@@H]1CCCN1C(=O)[C@@H](N)CCCNC(=N)N)[C@@H](C)O)C(=O)O [p277] | >50% | >50% | >50% | >50% | >50% | <25% | <25% | <25% | strong responses in the majority of the subjects | 0/8 | 5/8 | good immunogenicity in vivo
2 | CC(C)C[C@H](NC(=O)[C@H](CO)NC(=O)[C@H](CO)NC(=O)[C@H](CC(C)C)NC(=O)[C@H](CC(C)C)NC(=O)[C@H](Cc1ccccc1)NC(=O)[C@H](CO)NC(=O)[C@@H]1CCCN1C(=O)[C@@H](N)CCCNC(=N)N)C(=O)O [p342] | >25% | >25% | >25% | >50% | 0% | <25% | >25% | 0% | strong responses but in fewer instances only | 4/8 | 1/8 | good immunogenicity in vivo
3 | CC(C)C[C@H](NC(=O)[C@H](CC(C)C)NC(=O)[C@H](CCC(N)=O)NC(=O)[C@@H](NC(=O)[C@H](CC(C)C)NC(=O)[C@H](CCCNC(=N)N)NC(=O)[C@H](CCCNC(=N)N)NC(=O)[C@@H]1CCCN1C(=O)[C@@H](N)CC(=O)O)C(C)C)C(=O)O [p444] | – | – | <25% | >25% | 0% | 0% | 0% | <25% | poorly immunogenic in vitro; also recorded: poor immunogenicity | 1/8 | 0/8 | not immunogenic in vivo; also recorded: poor immunogenicity; also recorded: poorly immunogenic
4 | CC(C)C[C@H](NC(=O)[C@H](CCCNC(=N)N)NC(=O)[C@H](CCCNC(=N)N)NC(=O)[C@H](CC(C)C)NC(=O)[C@H](CS)NC(=O)[C@H](C)NC(=O)[C@H](CCCNC(=N)N)NC(=O)[C@@H](NC(=O)[C@@H](N)Cc1ccccc1)C(C)C)C(=O)O [p464] | >50% | >50% | 0% | >25% | <25% | <25% | <25% | 0% | strong responses but in fewer instances only | 1/8 | 2/8 | good immunogenicity in vivo
5 | CC(C)C[C@H](NC(=O)[C@H](C)NC(=O)[C@@H](NC(=O)[C@H](CC(C)C)NC(=O)[C@@H](NC(=O)[C@@H](NC(=O)CNC(=O)[C@@H]1CCCN1C(=O)[C@@H](N)CC(C)C)[C@@H](C)O)[C@@H](C)O)[C@@H](C)O)C(=O)O [p1107, LPGTTLTAL] | >50% | >50% | 0% | >50% | >25% | <25% | >25% | 0% | strong responses but in fewer instances only | 2/8 | 3/8 | good immunogenicity in vivo
6 | CC[C@H](C)[C@H](NC(=O)[C@@H](NC(=O)[C@H](CCCCN)NC(=O)[C@H](Cc1ccccc1)NC(=O)[C@H](CC(=O)O)NC(=O)[C@H](CO)NC(=O)[C@@H]1CCCN1C(=O)[C@@H](N)CC(C)C)[C@@H](C)O)C(=O)N[C@@H](CC(C)C)C(=O)O [p1123] | >50% | >50% | >50% | <25% | >50% | >50% | >50% | >50% | strong responses in the majority of the subjects | 0/8 | 7/8 | good immunogenicity in vivo
